assay: Human HepG2 cell viability assay in 384 well format; assay type: toxicity, cell-based; parameters: dose 125 nL, time 70.5 hour; cytotoxicity at 70.5 h: concentration not given beside the values; details: HepG2 cells, read-out: Inhibition

Structure (SMILES) | cytotoxicity at 70.5 h [%]
COc1cc(N2CCn3cc(CNc4ccccn4)nc3C2)ncn1 | 2.02
CCc1cnc(N2C[C@H]3C[C@H](C(=O)NCC(C)C)[C@@H](C2)O3)nc1 | 2.56
CCc1cnc(N2C[C@H]3C[C@H](C(=O)NC4CCC4)[C@@H](C2)O3)nc1 | -1.31
CCc1cnc(N2C[C@H]3C[C@H](C(=O)NC)[C@@H](C2)O3)nc1 | -1.27
Cn1cc(CN2CCc3ncn(C)c3C2COCc2cccnc2)cn1 (stereo not given) | -0.736
CCC1=N[C@@]2(CC[C@@H]3CN(C(=O)NCC(C)C)C[C@@H]32)C(=O)N1CC1CC1 | -2.4
Cc1noc([C@@]23CCO[C@@H]2CCN(C(=O)CN(C)C)C3)n1 | -0.0937
O=C(c1ccsc1)N1CCc2c(CNc3nccs3)n[nH]c2C1 | -2.81
Cc1nnc([C@H]2CC[C@@H]3[C@@H](CCN3Cc3c(C)noc3C)O2)o1 | -5.84
CN(C)CCOCC1CN(C(=O)[C@H]2CCCO2)Cc2ccnn2C1 (stereo not given in full) | -1.09
CN(C)C(=O)N1CCc2c(CNc3ncccn3)cncc2C1 | -2.83
CCS(=O)(=O)N1CCC2(CC(=O)N(c3cccc(C)c3)C2)C1 (stereo not given) | -4.67
O=C(N[C@@H]1CN(c2ncccn2)[C@@H]2CCCO[C@@H]21)c1cnccn1 | -1.73
O=C([C@H]1C[C@H]2OCC[C@H]2N(C(=O)C2CCOCC2)C1)N1CCCCO1 | -2.55
CC(C)NC(=O)[C@@H]1CCO[C@@H]2CCN(c3ncccn3)C[C@H]21 | 0.612
O=C([C@H]1C[C@H]2OCC[C@H]2N(Cc2ccncc2)C1)N1CCCCO1 | -0.173
O=C([C@H]1COC[C@H]2CN(Cc3ccco3)C[C@H]21)N1CCCO1 | 5.11
CCc1cnc(N2CC3(CCN(C(=O)c4ccoc4)C3)C2)nc1 | -1.44
c1ccc(NCc2cn3c(n2)CNCC3)nc1 | 2.18
COCc1cnc2n1CCN(C1CCC1)C2C (stereo not given) | -2.01

Structure (SMILES) | cytotoxicity at 70.5 h [%]
CO[C@@H]1CCN(S(=O)(=O)c2cn(C)cn2)[C@H]1Cc1ccncc1 | 4.82
COc1ncnc2c1CCN(Cc1cccs1)CC2 | -2.23
CN(C)C(=O)[C@@H]1CCO[C@@H]2CCN(c3ncccn3)C[C@@H]21 | -2.08
O=C(C1CC1)N1CCC[C@]2(C[C@@H](OCc3ccncc3)CO2)C1 | 0.889
O=C(c1ccccc1)N1CCC[C@]2(C[C@@H](OCc3ccncc3)CO2)C1 | -4.9
CO[C@@H]1CCN(c2nnc(C)s2)C[C@@H]1Cc1ccccc1 | -2.42
CNC(=O)c1nc2c(s1)CCN(C(=O)c1cccnc1)CC2 | -0.11
Cc1ccc(CN2CCc3ncnc(C4CCOC4)c3CC2)s1 (stereo not given) | 2.16
Cn1cc(CN2CCn3cc(CNC(=O)C4CCC4)nc3C2)cn1 | 2.26
Cc1ccc(C(=O)N2CCC3(CC2)NC(=O)CC3c2ccccc2)cn1 (stereo not given) | 5.79
O=C1NC(c2ccccc2)=N[C@@]12CC[C@@H]1CN(Cc3ccccc3)C[C@@H]12 | 0.309
O=S(=O)(c1cccs1)N1CCCn2nnc(CN3CCCCC3)c2C1 | 0.152
CC(=O)N1CC(=O)N(c2ccccc2)CC12CCN(Cc1cccs1)C2 (stereo not given) | -5.96
CN(C)CCN1C[C@@H]2CN(C(=O)c3ccsc3)C[C@@H]2C1=O | -2.41
Cc1ccc(C(=O)N2CCN3C[C@H](Oc4cccc(F)c4)C[C@H]3C2)cn1 | -2.95
COCC1CN(Cc2cc(C)on2)Cc2cnn(C)c21 (stereo not given) | -3.91
Cn1ccnc1CN1CCC2(CC1)CC(Oc1cccnc1)C2 | 1.72
Cc1ccc(CN2CCCC3(COCCN(Cc4c[nH]nn4)C3)C2)o1 (stereo not given) | 0.0506
CN1CCN(C(=O)c2nc3c(o2)CN(C(=O)c2cccnc2)C3)CC1 | -6.31
COCC1CN(Cc2ccncc2)Cc2nnn(CC3CC3)c21 (stereo not given) | -10.7

— ChEMBL document CHEMBL3507680, “University of Dundee, Gates Library screen for HepG2 cell viability”
